Measured values as given in ChEMBL document CHEMBL2074343 (Pharm Res, 2004).

Assays:
Type in all cases: functional, cell-based
[1] = target: T1, ATP-dependent translocase ABCB1 (Homo sapiens, UniProt P08183); assay: TP_TRANSPORTER: transepithelial transport in L-MDR1 cells; settings: pig
[2] = target: T1, ATP-dependent translocase ABCB1; assay: TP_TRANSPORTER: transepithelial transport of vinblastine in the presence of Atrovastatin at 50uM in KBV1 cells; settings: kbv1, 50 µM
[3] = target: T1, ATP-dependent translocase ABCB1; assay: TP_TRANSPORTER: transepithelial transport of vinblastine in the presence of Simvastatin acid at 50uM in L-MDR1 cells; settings: pig, l-mdr1, 50 µM

T1 sequence (P08183 whole entry): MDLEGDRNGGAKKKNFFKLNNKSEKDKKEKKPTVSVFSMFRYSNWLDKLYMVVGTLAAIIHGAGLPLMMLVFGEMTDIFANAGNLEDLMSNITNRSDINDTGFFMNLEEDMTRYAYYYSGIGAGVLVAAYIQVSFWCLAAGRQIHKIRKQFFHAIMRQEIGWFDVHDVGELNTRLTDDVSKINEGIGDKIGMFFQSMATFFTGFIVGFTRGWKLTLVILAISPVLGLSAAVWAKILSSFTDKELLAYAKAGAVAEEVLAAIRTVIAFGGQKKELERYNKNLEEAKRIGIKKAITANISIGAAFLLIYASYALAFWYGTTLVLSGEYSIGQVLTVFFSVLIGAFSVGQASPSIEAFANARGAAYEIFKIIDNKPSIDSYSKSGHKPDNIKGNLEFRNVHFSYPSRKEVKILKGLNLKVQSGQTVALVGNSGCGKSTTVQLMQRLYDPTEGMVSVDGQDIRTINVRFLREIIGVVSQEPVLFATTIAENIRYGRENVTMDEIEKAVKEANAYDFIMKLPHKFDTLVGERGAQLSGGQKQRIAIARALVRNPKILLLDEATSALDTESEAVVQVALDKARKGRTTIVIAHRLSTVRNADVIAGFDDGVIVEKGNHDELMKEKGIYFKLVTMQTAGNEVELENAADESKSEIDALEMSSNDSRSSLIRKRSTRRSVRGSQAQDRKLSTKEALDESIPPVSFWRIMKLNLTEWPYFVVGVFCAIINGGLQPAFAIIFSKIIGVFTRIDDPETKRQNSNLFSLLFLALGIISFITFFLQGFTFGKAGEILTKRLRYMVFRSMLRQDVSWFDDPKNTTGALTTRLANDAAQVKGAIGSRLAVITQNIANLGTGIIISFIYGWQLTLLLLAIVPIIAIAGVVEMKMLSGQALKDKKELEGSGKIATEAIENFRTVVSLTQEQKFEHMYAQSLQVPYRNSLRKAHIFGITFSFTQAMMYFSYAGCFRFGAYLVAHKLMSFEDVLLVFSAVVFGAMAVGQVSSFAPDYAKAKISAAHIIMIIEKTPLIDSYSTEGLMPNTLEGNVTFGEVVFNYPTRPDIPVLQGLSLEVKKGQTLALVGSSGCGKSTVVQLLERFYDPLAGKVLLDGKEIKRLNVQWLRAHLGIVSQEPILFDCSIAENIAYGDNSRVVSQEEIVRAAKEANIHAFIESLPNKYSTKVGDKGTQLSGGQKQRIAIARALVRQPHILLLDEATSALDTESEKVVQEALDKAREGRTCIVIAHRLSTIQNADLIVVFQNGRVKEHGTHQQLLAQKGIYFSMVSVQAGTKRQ

Activity [1]	Activity [2]	Activity [3]	SMILES
substrate [+]	is not an inhibitor [-]	–	CC(C)c1c(C(=O)Nc2ccccc2)c(-c2ccccc2)c(-c2ccc(F)cc2)n1CC[C@@H](O)C[C@@H](O)CC(=O)O [ATORVASTATIN]
substrate [+]	–	is not an inhibitor [-]	CCC(C)(C)C(=O)O[C@H]1C[C@@H](C)C=C2C=C[C@H](C)[C@H](CC[C@@H](O)C[C@@H](O)CC(=O)O)[C@H]21 [TENIVASTATIN]
